Measured values as given in publication PMC11123773, “Identification of New Substrates and Inhibitors of Human CYP2A7” (Molecules, 2024).
Substitutions are numbered along the chain they refer to.

Legend:
Test in all cases: Diclofenac biotransformation with enzyme bags, LC-MS analysis of hydroxydiclofenac
Format in all cases: biochemical
CYP2A7-WT = molecular target: T1, CYP2A7-WT (Homo sapiens, UniProt P20853, D169E/H274R/R311C/V479G); parameters: expressed in transfected cells; host or cells: Schizosaccharomyces pombe strain AA01 (pREP1-CYP2A7-WT in CAD62), permeabilized cells (enzyme bags); settings: by CYP2A7-WT; diclofenac 100 µM
T1 sequence (P20853 1-494 D169E/H274R/R311C/V479G): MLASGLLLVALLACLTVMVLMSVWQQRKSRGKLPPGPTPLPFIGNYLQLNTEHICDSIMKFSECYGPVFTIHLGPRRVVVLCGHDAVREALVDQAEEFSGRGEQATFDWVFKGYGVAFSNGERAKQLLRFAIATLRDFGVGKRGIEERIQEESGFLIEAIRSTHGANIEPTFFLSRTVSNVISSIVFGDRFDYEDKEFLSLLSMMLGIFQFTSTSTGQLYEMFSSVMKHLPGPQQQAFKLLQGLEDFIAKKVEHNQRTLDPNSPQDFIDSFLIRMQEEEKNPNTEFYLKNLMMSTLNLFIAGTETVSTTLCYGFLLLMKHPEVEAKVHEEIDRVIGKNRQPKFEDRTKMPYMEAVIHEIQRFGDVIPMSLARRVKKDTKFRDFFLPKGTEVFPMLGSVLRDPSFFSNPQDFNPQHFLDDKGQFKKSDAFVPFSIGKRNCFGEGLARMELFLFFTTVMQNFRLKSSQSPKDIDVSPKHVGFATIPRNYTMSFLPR
Experimental: (§1) This was performed as described previously with slight modifications. Briefly, fission yeast cells were cultured on EMM plates with 5 µM thiamine for 3 days at 30 °C. A single yeast colony was then transferred to a 10 mL liquid culture of EMM without thiamine and cultured at 30 °C and 230 rpm for 36 h. As the recombinant expression of the human enzymes is controlled by the strong endogenous nmt1 promoter, all subsequent cultures were cultured in the absence of thiamine to keep the promoter in an active state. For each activity assay, 5 × 10^7 cells (stationary growth phase) were transferred to 1.5 mL Eppendorf tubes (Axygen; Silicon Valley, USA), pelleted, and incubated in 1 mL of 0.3% Triton-X100 in Tris-KCl buffer (200 mM KCl, 100 mM Tris-HCl pH 7.8) at room temperature for 60 min at 150 rpm for permeabilization. After three washes with 1 mL NH4HCO3 buffer (50 mM, pH 7.8), cells were resuspended in phosphate buffer (pH 7.4) and then the substrate and the NADPH regeneration system were added to a total volume of 50 µL. The samples were incubated at 37 °C and 1000 rpm for 3 h. For LC-MS analysis, the reaction mixture was extracted with an equal amount of ethyl acetate by centrifugation, and the supernatants were stored at −20 °C until use.
(§2) Analytical procedures were performed on an Agilent HPLC/microTOF-Q II instrument equipped with a Kromasil 100-5-C18 (dimensions 4.6 × 250 mm). […]

CYP2A6*1 = molecular target: T2, CYP2A6*1 (Homo sapiens, UniProt P11509); parameters: expressed in transfected cells; host or cells: Schizosaccharomyces pombe strain RAJ122 (pREP1-CYP2A6*1 in CAD62), permeabilized cells (enzyme bags); settings: by CYP2A6*1; diclofenac 100 µM
T2 sequence (P11509 1-494): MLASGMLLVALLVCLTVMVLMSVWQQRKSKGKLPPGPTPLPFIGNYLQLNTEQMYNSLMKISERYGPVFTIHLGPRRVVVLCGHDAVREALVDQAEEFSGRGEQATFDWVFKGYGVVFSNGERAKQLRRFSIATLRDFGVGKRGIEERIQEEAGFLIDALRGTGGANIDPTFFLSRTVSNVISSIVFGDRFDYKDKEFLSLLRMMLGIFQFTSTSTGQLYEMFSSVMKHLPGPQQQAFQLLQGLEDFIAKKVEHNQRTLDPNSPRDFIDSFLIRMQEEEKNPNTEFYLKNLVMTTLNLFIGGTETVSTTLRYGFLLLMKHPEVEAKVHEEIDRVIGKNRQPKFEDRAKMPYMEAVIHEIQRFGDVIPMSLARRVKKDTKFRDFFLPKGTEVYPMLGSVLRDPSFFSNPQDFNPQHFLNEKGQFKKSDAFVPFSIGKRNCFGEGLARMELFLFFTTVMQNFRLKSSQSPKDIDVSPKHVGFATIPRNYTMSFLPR
Experimental: as §1, §2

CYP2A7*1 = molecular target: T3, CYP2A7*1 (Homo sapiens, UniProt P20853); parameters: expressed in transfected cells; host or cells: Schizosaccharomyces pombe strain RAJ127 (pREP1-CYP2A7*1 in CAD62), permeabilized cells (enzyme bags); settings: by CYP2A7*1; diclofenac 100 µM
T3 sequence (P20853 1-494): T1 sequence (P20853 1-494 D169E/H274R/R311C/V479G) with E169D, R274H, C311R, G479V
Experimental: as §1, §2

`O=C(O)Cc1ccccc1Nc1c(Cl)cccc1Cl` [diclofenac] was tested, and the “Metabolization of diclofenac (hydroxydiclofenac formation)” value (“Metabolization of diclofenac” below) (CYP2A7-WT) was “produced a diclofenac metabolite that had the mass of hydroxydiclofenac”, the “Metabolization of diclofenac” value (CYP2A6*1) was “produced a diclofenac metabolite that had the mass of hydroxydiclofenac” and the “Metabolization of diclofenac” value (CYP2A7*1) was “produced a diclofenac metabolite that had the mass of hydroxydiclofenac”.
